{"source": "patent US20130115356A1", "about": "“SWEETENER COMPOSITION” (FIRMENICH SA, priority 2010, published 2013)", "key": {"[1]": {"test": "Panel evaluation of a carbonated lemon beverage formulation", "type": "in vivo, human", "details": "carbonated lemon beverage with stevia", "method": "A lemon beverage syrup base was prepared by mixing together the following ingredients:\nTo a 1 litre portion of the syrup base was added 6 g of sclareolide, ex Avoca (1% w/v ethanolic solution). The mixture was then dilute with 5 litres of carbonated water to provide sclareolide at 10 ppm. This is referred to as sample 6.\nTo another 1 litre portion of the syrup base was added 0.12 g of sclareolide, ex Avoca (1% w/v ethanolic solution). The mixture was then dilute with 5 litres of carbonated water to provide sclareolide at 0.2 ppm. This is referred to as sample 7.\nA third portion of the syrup base was used as is (i.e. with no sclareolide present) and was diluted with 5 litres of carbonated water. This is referred to as sample 8.\n30 panellists were then asked to evaluate (i) sample 6 and sample 8 and (ii) sample 7 and sample 8 in a balanced, randomized blind test for Overall Flavor, Sweetness, Tartness/Acidity, Lingering Aftertaste, Metallic/Bitterness, Off-note aftertaste and Liquorice Flavor on an 11-point continuous intensity scale where 0=Imperceptible and 10=Extremely Pronounced."}, "[2]": {"test": "Trained panel taste evaluation of lemon ice tea beverages", "type": "in vivo, human", "details": "conclusion from Table 3, sclareolide 0.075 wt % in Base B", "method": "Lemon ice tea beverages were prepared with the following ingredients in the amounts shown (grams). Base A is the full sucrose product (i.e. control sample). Base B is the same as base A except with 50% reduced sucrose and additional stevia sweetener in to provide the same level of sweetness.\nThe ingredients for each base were mixed together until fully dissolved.\nThe samples were then evaluated by a trained panel of 10 people. Tasting was performed by a blind and balanced presentation order of the samples with the intensity of acidity, bitterness, sweetness and liquorice all being assessed on a scale of 0 to 5 where 0 represents not perceptible and 5 represents very intense.\nThe scores were averaged and an analysis of variance was performed to identify significant differences between the samples."}}, "data": [{"smiles": "CC1(C)CCC[C@]2(C)[C@H]3CC(=O)O[C@]3(C)CC[C@@H]12", "note": "[sclareolide]", "values": [{"measurement": "masking effect", "setting": "[1]; sclareolide at 0.2 ppm", "result": "little or no masking effect observed"}, {"measurement": "masking liquorice notes", "setting": "[1]; sclareolide at 10 ppm", "result": "not achieved"}, {"measurement": "effect on the acidity, bitterness or sweetness of the product", "setting": "[2]", "result": "does not appear to have a significant effect"}, {"measurement": "effect on the liquorice taste of the product", "setting": "[2]", "result": "significantly reduces the liquorice taste"}]}]}
